The results in this text go back to patent publication US4461895A, “Dibenzo(de,g)quinolines” (Warner-Lambert Company, priority 1981, dated 1984).

SMILES strings stand for the structures.

The subject of data set [1] is cats. The experiment in a line: coughing experiment according to Domenjoz on cats (antitussive effect). In kind it is in vivo. An excerpt:
The new compounds thereby considerably exceed the known antitussive action of 5,6,6a,7-tetrahydro-1,2,9,10-tetramethoxy-5-methyl-4H-dibenzo(de,g)quinoline (glaucine) with regard to the strength and length of activity.
(§1) The following Table summarises some of the animal experimental results obtained: […]

The nature of data set [2]: toxicity in mice (LD50). The following applies: mouse, in vivo.
Excerpt: as §1

`COc1cc2c(cc1OC)-c1c(OC)c(OC)cc3c1C(C2)N(C)CC3` (stereo not drawn) [glaucine]: the “antitussive effect: duration of cough inhibition” value was found to be 10 min in data set [1] (2.0 mg./kg., i.v.) and 40 min in data set [1] (4.0 mg./kg., id.). Besides, the “antitussive effect: cough inhibition” value in data set [1] (10.0 mg./kg., sc., result in words) is given as “no cough”. The LD50 in data set [2] (iv) is 58.3 mg/kg; in data set [2] (po, ig.), 531 mg/kg; in data set [2] (sc.) it was 20 mg/kg.

Take `C=CCN1CCc2cc(OC)c(OC)c3c2C1Cc1cc(OC)c(OC)cc1-3` (single isomer, unassigned; (+)) [Example 1, (+)-6-Allyl-5,6,6a,7-tetrahydro-1,2,9,10-tetramethoxy-4H-dibenzo(de,g)quinoline]: the “antitussive effect: duration of cough inhibition” value in data set [1] (1.0 mg./kg., i.v.) worked out at 20 min; in data set [1] (6.25 mg./kg., id.), 90 min; in data set [1] (6.25 mg./kg., sc.), 40 min. Moreover, the median lethal dose (LD50) is 150 mg/kg in data set [2] (iv); approximately 1200 mg/kg in data set [2] (po, ig.); 150 mg/kg in data set [2] (sc.).
